Reference: patent US9617226B2 (AbbVie Deutschland GmbH & Co. KG, priority 2014, dated 2017)

What was measured:
[1] = biological target: human vasopressin V1b receptor (Homo sapiens (Human), UniProt P47901); test: biochemical
[2] = biological target: human vasopressin V1a receptor (Homo sapiens (Human), UniProt P37288); test: Vasopressin V1a receptor binding assay; details: selectivity quotient, human V1a vs human V1b
Experimental: The test substances were dissolved in a concentration of 5 mM M in DMSO. Further dilution of these DMSO solutions took place as described for V1b.
The membrane pellet was again homogenized in a High-Pressure-Homogenizer, Polytec 50K at 1500 PSI (Heinemann, Germany) and subsequently taken up in 50 mM Tris-HCl, pH 7.4, homogenized and stored in aliquots frozen in liquid nitrogen at −190° C.
The incubation buffer was: 50 mM Tris, 10 mM MgCl2, 0.1% BSA, pH 7.4.
Duplicate determinations were carried out.
After incubation (60 minutes at room temperature), the samples were processed as described for V1b.
The binding parameters were calculated by nonlinear regression in SAS.

Chain of human vasopressin V1b receptor (P47901 whole entry): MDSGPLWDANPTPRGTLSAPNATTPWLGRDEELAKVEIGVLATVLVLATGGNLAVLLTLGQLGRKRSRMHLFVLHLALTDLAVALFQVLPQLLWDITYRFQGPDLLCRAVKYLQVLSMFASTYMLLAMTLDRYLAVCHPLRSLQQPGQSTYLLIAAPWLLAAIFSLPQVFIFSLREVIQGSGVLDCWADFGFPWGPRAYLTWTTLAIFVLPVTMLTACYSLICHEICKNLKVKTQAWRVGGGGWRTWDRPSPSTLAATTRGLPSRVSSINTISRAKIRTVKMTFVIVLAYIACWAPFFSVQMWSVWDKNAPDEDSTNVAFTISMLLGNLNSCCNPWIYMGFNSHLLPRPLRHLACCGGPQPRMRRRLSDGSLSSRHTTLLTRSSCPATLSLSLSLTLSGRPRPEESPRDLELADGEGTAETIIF
Chain of human vasopressin V1a receptor (P37288 whole entry): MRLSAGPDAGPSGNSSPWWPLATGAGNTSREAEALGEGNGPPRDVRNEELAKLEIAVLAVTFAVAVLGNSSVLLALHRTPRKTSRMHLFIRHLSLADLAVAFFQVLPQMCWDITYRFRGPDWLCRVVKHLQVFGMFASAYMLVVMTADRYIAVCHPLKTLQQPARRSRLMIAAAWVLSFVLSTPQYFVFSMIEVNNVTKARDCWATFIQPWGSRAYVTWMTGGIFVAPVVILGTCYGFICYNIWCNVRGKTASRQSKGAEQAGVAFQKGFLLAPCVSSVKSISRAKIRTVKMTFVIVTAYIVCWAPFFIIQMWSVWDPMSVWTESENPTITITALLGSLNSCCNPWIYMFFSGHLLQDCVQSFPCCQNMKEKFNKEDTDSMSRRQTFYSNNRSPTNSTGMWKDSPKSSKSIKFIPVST

SMILES	Ki [1]	Ki(h-V1a)/Ki(h-V1b) [2]
CC(C)(C)NC(=O)Cn1c(-c2cccc(Cl)c2)nc2ccc([C@H]3C[C@@H](CN4CCCCC4)C3)cc2c1=O [Example 26, cis-N-tert-Butyl-2-[2-(3-chlorophenyl)-4-oxo-6-[3-(1-piperidylmethyl)cyclobutyl]-quinazolin-3-yl]acetamide]	< 1 nM	+++ (>75)
O=C(Cn1c(-c2cccc(Cl)c2)nc2ccc([C@H]3C[C@@H](CN4CCCCC4)C3)cc2c1=O)NC1CC1 [Example 27, cis-2-[2-(3-Chlorophenyl)-4-oxo-6-[3-(1-piperidylmethyl)cyclobutyl]quinazolin-3-yl]-N-cyclopropyl-acetamide]	10 to 100 nM	+++ (>75)
CCCNC(=O)Cn1c(-c2cccc(Cl)c2)nc2ccc([C@H]3C[C@@H](CN4CCCCC4)C3)cc2c1=O [Example 28, cis-2-[2-(3-Chlorophenyl)-4-oxo-6-[3-(1-piperidylmethyl)cyclobutyl]quinazolin-3-yl]-N-propyl-acetamide]	10 to 100 nM	+++ (>75)
O=C(Cn1c(-c2cccc(Cl)c2)nc2ccc([C@H]3C[C@@H](CN4CCCCC4)C3)cc2c1=O)NCC1CC1 [Example 29, cis-2-[2-(3-Chlorophenyl)-4-oxo-6-[3-(1-piperidylmethyl)cyclobutyl]quinazolin-3-yl]-N-(cyclopropylmethyl)acetamide]	10 to 100 nM	+++ (>75)
CC(C)NC(=O)Cn1c(-c2cccc(Cl)c2)nc2ccc([C@H]3C[C@@H](CN4CC5(COC5)C4)C3)cc2c1=O [Example 31, cis-2-[2-(3-Chlorophenyl)-6-[3-(6-oxa-2-azaspiro[3.3]heptan-2-ylmethyl)cyclobutyl]-4-oxo-quinazolin-3-yl]-N-isopropyl-acetamide]	1 to 10 nM	+++ (>75)
CC(C)NC(=O)Cn1c(-c2cccc(Cl)c2)nc2ccc([C@H]3C[C@@H](CN4CCC(C(F)(F)F)CC4)C3)cc2c1=O [Example 38, cis-2-[2-(3-Chlorophenyl)-4-oxo-6-[3-[[4-(trifluoromethyl)-1-piperidyl]methyl]cyclobutyl]quinazolin-3-yl]-N-isopropyl-acetamide]	1 to 10 nM	+++ (>75)
CC(C)NC(=O)Cn1c(-c2cccc(Cl)c2)nc2ccc([C@H]3C[C@@H](CN4CC5(CCOCC5)C4)C3)cc2c1=O [Example 41, cis-2-[2-(3-Chlorophenyl)-6-[3-(7-oxa-2-azaspiro[3.5]nonan-2-ylmethyl)cyclobutyl]-4-oxo-quinazolin-3-yl]-N-isopropyl-acetamide]	1 to 10 nM	+++ (>75)
CC(C)NC(=O)Cn1c(-c2cccc(Cl)c2)nc2ccc([C@H]3C[C@@H](CN4C[C@@H](C)O[C@@H](C)C4)C3)cc2c1=O [Example 42, cis-2-[2-(3-Chlorophenyl)-6-[3-[[(2S,6R)-2,6-dimethylmorpholin-4-yl]methyl]cyclobutyl]-4-oxo-quinazolin-3-yl]-N-isopropyl-acetamide]	1 to 10 nM	+++ (>75)
CC(C)NC(=O)Cn1c(-c2cccc(Cl)c2)nc2ccc([C@H]3C[C@@H](CN4CCOC[C@H]4C)C3)cc2c1=O [Example 44, cis-2-[2-(3-Chlorophenyl)-6-[3-[[(3R)-3-methylmorpholin-4-yl]methyl]cyclobutyl]-4-oxo-quinazolin-3-yl]-N-isopropyl-acetamide]	1 to 10 nM	+++ (>75)
C[C@H](NC(=O)Cn1c(-c2cccc(Cl)c2)nc2ccc([C@H]3C[C@@H](CN4CCCCC4)C3)cc2c1=O)C(F)(F)F [Example 45]	1 to 10 nM	+++ (>75)
C[C@@H](NC(=O)Cn1c(-c2cccc(Cl)c2)nc2ccc([C@H]3C[C@@H](CN4CCCCC4)C3)cc2c1=O)C(F)(F)F [Example 46]	10 to 100 nM	++ (25-75)

Next, values leading:

Ki [1]	Ki(h-V1a)/Ki(h-V1b) [2]	SMILES
1 to 10 nM	+++ (>75)	CC(C)NC(=O)Cn1c(-c2cccc(Cl)c2)nc2ccc([C@H]3C[C@@H](CN4CCCOCC4)C3)cc2c1=O [Example 25, cis-2-[2-(3-Chlorophenyl)-6-[3-(1,4-oxazepan-4-ylmethyl)cyclobutyl]-4-oxo-quinazolin-3-yl]-N-isopropyl-acetamide]
1 to 10 nM	+++ (>75)	CC(C)NC(=O)Cn1c(-c2cccc(Cl)c2)nc2ccc([C@H]3C[C@@H](CN4CCC(F)CC4)C3)cc2c1=O [Example 30, cis-2-[2-(3-Chlorophenyl)-6-[3-[(4-fluoro-1-piperidyl)methyl]cyclobutyl]-4-oxo-quinazolin-3-yl]-N-isopropyl-acetamide]
10 to 100 nM	+++ (>75)	CC(C)NC(=O)Cn1c(-c2cccc(Cl)c2)nc2ccc([C@H]3C[C@@H](CN4CCC(O)CC4)C3)cc2c1=O [Example 32, cis-2-[2-(3-Chlorophenyl)-6-[3-[(4-hydroxy-1-piperidyl)methyl]cyclobutyl]-4-oxo-quinazolin-3-yl]-N-isopropyl-acetamide]
1 to 10 nM	+++ (>75)	CC(C)NC(=O)Cn1c(-c2cccc(Cl)c2)nc2ccc([C@H]3C[C@@H](CN4CCC[C@@H](O)C4)C3)cc2c1=O [Example 33, cis-2-[2-(3-Chlorophenyl)-6-[3-[[(3R)-3-hydroxy-1-piperidyl]methyl]cyclobutyl]-4-oxo-quinazolin-3-yl]-N-isopropyl-acetamide]
1 to 10 nM	+++ (>75)	CC(C)NC(=O)Cn1c(-c2cccc(Cl)c2)nc2ccc([C@H]3C[C@@H](CN4CC[C@@H](C)C4)C3)cc2c1=O [Example 34, cis-2-[2-(3-Chlorophenyl)-6-[3-[[(3R)-3-methylpyrrolidin-1-yl]methyl]cyclobutyl]-4-oxo-quinazolin-3-yl]-N-isopropyl-acetamide]
10 to 100 nM	+++ (>75)	COC1CN(C[C@H]2C[C@@H](c3ccc4nc(-c5cccc(Cl)c5)n(CC(=O)NC(C)C)c(=O)c4c3)C2)C1 [Example 35, cis-2-[2-(3-Chlorophenyl)-6-[3-[(3-methoxyazetidin-1-yl)methyl]cyclobutyl]-4-oxo-quinazolin-3-yl]-N-isopropyl-acetamide]
1 to 10 nM	+++ (>75)	CC(C)NC(=O)Cn1c(-c2cccc(Cl)c2)nc2ccc([C@H]3C[C@@H](CN4CCC(C)(O)CC4)C3)cc2c1=O [Example 36, cis-2-[2-(3-Chlorophenyl)-6-[3-[(4-hydroxy-4-methyl-1-piperidyl)methyl]cyclobutyl]-4-oxo-quinazolin-3-yl]-N-isopropyl-acetamide]
1 to 10 nM	+++ (>75)	CC(C)NC(=O)Cn1c(-c2cccc(Cl)c2)nc2ccc([C@H]3C[C@@H](CN4CCC[C@H](O)C4)C3)cc2c1=O [Example 37, cis-2-[2-(3-Chlorophenyl)-6-[3-[ [(3S)-3-hydroxy-1-piperidyl]methyl]cyclobutyl]-4-oxo-quinazolin-3-yl]-N-isopropyl-acetamide]
